Experimental data: article PMC5218480 (PLoS ONE, 2017)

System: MV-4-11 cells
Experiment: Gene expression microarray analysis (Affymetrix PrimeView) and GSEA
Format: cell-based, human
Parameters: RFU PODN (11730768_x_at) / Fold change /veh PODN (11730768_x_at) / RFU LINC00158 (11744669_a_at) / Fold change /veh LINC00158 (11744669_a_at) / RFU DUSP10 (11751237_a_at) / Fold change /veh DUSP10 (11751237_a_at) / RFU ID3 (11757404_x_at) / Fold change /veh ID3 (11757404_x_at) / RFU PLEKHG5 (11737974_s_at) / Fold change /veh PLEKHG5 (11737974_s_at) / RFU LRRC4B (11730491_at) / Fold change /veh LRRC4B (11730491_at) / RFU GIMAP4 (11747438_a_at) / Fold change /veh GIMAP4 (11747438_a_at) / RFU KRT8 (11758183_x_at) / Fold change /veh KRT8 (11758183_x_at) / RFU CNN1 (11734310_a_at) / Fold change /veh CNN1 (11734310_a_at) / RFU VPS37D (11726825_at) / Fold change /veh VPS37D (11726825_at) / RFU C10orf10 (11716522_x_at) / Fold change /veh C10orf10 (11716522_x_at) / RFU KIR2DL2 /// KIR2DL4 /// KIR2DL5A /// KIR2DL5B /// KIR2DS1 /// KIR2DS2 /// KIR2DS3 /// KIR2DS4 /// KIR3DL3 /// KIR3DL3 /// KIR3DS1 (11738374_at) / Fold change /veh KIR2DL2 /// KIR2DL4 /// KIR2DL5A /// KIR2DL5B /// KIR2DS1 /// KIR2DS2 /// KIR2DS3 /// KIR2DS4 /// KIR3DL3 /// KIR3DL3 /// KIR3DS1 (11738374_at) / RFU C1QL1 (11718748_at) / Fold change /veh C1QL1 (11718748_at) / RFU TMPRSS4 (11747572_a_at) / Fold change /veh TMPRSS4 (11747572_a_at) / RFU HAMP (11756126_x_at) / Fold change /veh HAMP (11756126_x_at) / RFU RNFT2 (11725882_a_at) / Fold change /veh RNFT2 (11725882_a_at) / RFU NR4A2 (11747474_a_at) / Fold change /veh NR4A2 (11747474_a_at) / RFU ABCC12 (11746883_a_at) / Fold change /veh ABCC12 (11746883_a_at) / RFU TMEM136 (11760407_x_at) / Fold change /veh TMEM136 (11760407_x_at) / RFU CLDN22 /// WWC2 (11732394_at) / Fold change /veh CLDN22 /// WWC2 (11732394_at) / RFU HLA-DPB1 (11760878_x_at) / Fold change /veh HLA-DPB1 (11760878_x_at) / RFU SPINT1 (11716480_a_at) / Fold change /veh SPINT1 (11716480_a_at) / RFU GAP43 (11754022_s_at) / Fold change /veh GAP43 (11754022_s_at) / RFU A4GNT (11735810_at) / Fold change /veh A4GNT (11735810_at) / RFU PRB3 (11715151_x_at) / Fold change /veh PRB3 (11715151_x_at) / RFU TUBB4B (11761932_at) / Fold change /veh TUBB4B (11761932_at) / RFU CAPN14 (11732068_a_at) / Fold change /veh CAPN14 (11732068_a_at) / RFU TMCC2 (11721928_a_at) / Fold change /veh TMCC2 (11721928_a_at) / RFU IRGQ (11745062_a_at) / Fold change /veh IRGQ (11745062_a_at) / RFU FAM174B (11720279_a_at) / Fold change /veh FAM174B (11720279_a_at) / RFU TMPRSS4 (11748680_a_at) / Fold change /veh TMPRSS4 (11748680_a_at) / RFU FAM212B (11763350_a_at) / Fold change /veh FAM212B (11763350_a_at) / RFU PLEKHG5 (11743358_a_at) / Fold change /veh PLEKHG5 (11743358_a_at) / RFU ZSCAN30 (11745921_a_at) / Fold change /veh ZSCAN30 (11745921_a_at) / RFU CMKLR1 (11741424_a_at) / Fold change /veh CMKLR1 (11741424_a_at) / RFU LOC101060620 /// MAPK8IP1 (11723275_at) / Fold change /veh LOC101060620 /// MAPK8IP1 (11723275_at) / RFU SPTSSB (11747773_x_at) / Fold change /veh SPTSSB (11747773_x_at) / RFU PRSS12 (11739890_at) / Fold change /veh PRSS12 (11739890_at) / RFU BIN1 (11741810_x_at) / Fold change /veh BIN1 (11741810_x_at) / RFU WNT11 (11732464_a_at) / Fold change /veh WNT11 (11732464_a_at) / RFU C10orf10 (11716521_a_at) / Fold change /veh C10orf10 (11716521_a_at) / RFU C5orf56 (11738089_at) / Fold change /veh C5orf56 (11738089_at) / RFU CYB561 (11721691_x_at) / Fold change /veh CYB561 (11721691_x_at) / RFU ANKRD19P (11752326_a_at) / Fold change /veh ANKRD19P (11752326_a_at) / RFU OR2T12 /// OR2T33 /// OR2T8 (11738714_s_at) / Fold change /veh OR2T12 /// OR2T33 /// OR2T8 (11738714_s_at) / RFU VCAN (11748164_a_at) / Fold change /veh VCAN (11748164_a_at) / RFU JSRP1 (11732532_at) / Fold change /veh JSRP1 (11732532_at) / RFU KRTAP10-11 (11738290_x_at) / Fold change /veh KRTAP10-11 (11738290_x_at) / RFU MYO3A (11730013_a_at) / Fold change /veh MYO3A (11730013_a_at) / RFU EBF3 (11725865_a_at) / Fold change /veh EBF3 (11725865_a_at) / RFU CAMK2N1 (11719241_x_at) / Fold change /veh CAMK2N1 (11719241_x_at) / RFU C5orf56 (11738088_a_at) / Fold change /veh C5orf56 (11738088_a_at) / RFU OLFML3 (11715873_a_at) / Fold change /veh OLFML3 (11715873_a_at) / RFU LOC100653217 /// NTM (11731650_a_at) / Fold change /veh LOC100653217 /// NTM (11731650_a_at) / RFU MAPK11 (11762145_a_at) / Fold change /veh MAPK11 (11762145_a_at) / RFU FIZ1 (11724087_x_at) / Fold change /veh FIZ1 (11724087_x_at) / RFU OASL (11726364_x_at) / Fold change /veh OASL (11726364_x_at) / RFU SOX15 (11748057_x_at) / Fold change /veh SOX15 (11748057_x_at) / RFU CD79A (11719716_a_at) / Fold change /veh CD79A (11719716_a_at) / RFU HIST1H1D (11736915_at) / Fold change /veh HIST1H1D (11736915_at) / RFU CASKIN2 (11723855_a_at) / Fold change /veh CASKIN2 (11723855_a_at) / RFU LOC730098 (11760151_x_at) / Fold change /veh LOC730098 (11760151_x_at) / RFU OR4N2 (11742367_at) / Fold change /veh OR4N2 (11742367_at) / RFU PRRT2 (11749266_a_at) / Fold change /veh PRRT2 (11749266_a_at) / RFU SNX32 (11753110_a_at) / Fold change /veh SNX32 (11753110_a_at) / RFU CDHR5 (11726645_a_at) / Fold change /veh CDHR5 (11726645_a_at) / RFU RCAN1 (11760418_a_at) / Fold change /veh RCAN1 (11760418_a_at) / RFU FAM167A (11723789_a_at) / Fold change /veh FAM167A (11723789_a_at) / RFU FAM26E (11764081_at) / Fold change /veh FAM26E (11764081_at) / RFU ISYNA1 (11749810_s_at) / Fold change /veh ISYNA1 (11749810_s_at) / RFU ACY1 (11761880_at) / Fold change /veh ACY1 (11761880_at) / RFU 11764098_at / Fold change /veh 11764098_at / RFU SAMD14 (11745864_x_at) / Fold change /veh SAMD14 (11745864_x_at) / RFU NPB (11741838_a_at) / Fold change /veh NPB (11741838_a_at) / RFU TMPRSS6 (11731388_a_at) / Fold change /veh TMPRSS6 (11731388_a_at) / RFU KRTAP10-2 (11738614_at) / Fold change /veh KRTAP10-2 (11738614_at) / RFU ARHGAP8 /// PRR5-ARHGAP8 (11727945_x_at) / Fold change /veh ARHGAP8 /// PRR5-ARHGAP8 (11727945_x_at) / RFU KRTAP5-7 /// NADSYN1 (11734609_at) / Fold change /veh KRTAP5-7 /// NADSYN1 (11734609_at) / RFU RASL12 (11751679_a_at) / Fold change /veh RASL12 (11751679_a_at) / RFU CDKN2B (11736163_a_at) / Fold change /veh CDKN2B (11736163_a_at) / RFU PRF1 (11729649_at) / Fold change /veh PRF1 (11729649_at) / RFU, ZNF638 /// ZNF638-IT1 / Fold change vs veh, ZNF638 /// ZNF638-IT1 / RFU, PANK3 / Fold change vs veh, PANK3 / RFU, SH3YL1 / Fold change vs veh, SH3YL1 / RFU, ZEB2 / Fold change vs veh, ZEB2 / RFU, NRIP1 / Fold change vs veh, NRIP1 / RFU, PTTG1IP / Fold change vs veh, PTTG1IP / RFU, CAPN2 / Fold change vs veh, CAPN2 / RFU, MED14 / Fold change vs veh, MED14 / RFU, SNORA58 / Fold change vs veh, SNORA58 / RFU, C1orf63 / Fold change vs veh, C1orf63 / RFU, LRRFIP1 / Fold change vs veh, LRRFIP1 / RFU, NDUFAF7 / Fold change vs veh, NDUFAF7 / RFU, SLC12A2 / Fold change vs veh, SLC12A2 / RFU, IBTK / Fold change vs veh, IBTK / RFU, ESF1 / Fold change vs veh, ESF1 / Fold change vs veh, TMEM50B / RFU, TAOK1 / Fold change vs veh, TAOK1 / RFU, ACBD3 / Fold change vs veh, ACBD3 / RFU, TMA16 / Fold change vs veh, TMA16 / RFU, RWDD3 / Fold change vs veh, RWDD3 / RFU, BCAT1 / Fold change vs veh, BCAT1 / RFU, EDEM3 / Fold change vs veh, EDEM3 / RFU, TMEM33 / Fold change vs veh, TMEM33 / RFU, WDR75 / Fold change vs veh, WDR75 / RFU, AHCTF1 / Fold change vs veh, AHCTF1 / RFU, TFRC / Fold change vs veh, TFRC / RFU, ZDHHC17 / Fold change vs veh, ZDHHC17 / RFU, NOM1 / Fold change vs veh, NOM1 / RFU, ARL8B / Fold change vs veh, ARL8B / RFU, ZBTB11 / Fold change vs veh, ZBTB11 / RFU, TAMM41 / Fold change vs veh, TAMM41 / RFU, KIAA1704 /// LOC100996395 / Fold change vs veh, KIAA1704 /// LOC100996395 / RFU, ING1 / Fold change vs veh, ING1 / RFU, TRMT61B / Fold change vs veh, TRMT61B / RFU, FUBP3 / Fold change vs veh, FUBP3 / RFU, TP53 / Fold change vs veh, TP53 / RFU, TNKS2 / Fold change vs veh, TNKS2 / RFU, ZFP14 / Fold change vs veh, ZFP14 / RFU, ACTR2 / Fold change vs veh, ACTR2 / RFU, PPP3R1 / Fold change vs veh, PPP3R1 / RFU, PIK3R1 / Fold change vs veh, PIK3R1 / RFU, HNRNPA1 / Fold change vs veh, HNRNPA1 / RFU, RNF170 / Fold change vs veh, RNF170 / RFU, ZNF28 / Fold change vs veh, ZNF28 / RFU, RNGTT / Fold change vs veh, RNGTT / RFU, OGT / Fold change vs veh, OGT / RFU, BRD1 / Fold change vs veh, BRD1 / RFU, MARS / Fold change vs veh, MARS / RFU, ZNF655 / Fold change vs veh, ZNF655 / RFU, FAHD1 / Fold change vs veh, FAHD1 / RFU, BDP1 / Fold change vs veh, BDP1 / RFU, LRRCC1 / Fold change vs veh, LRRCC1 / RFU, ARID1A / Fold change vs veh, ARID1A / RFU, ZNF146 / Fold change vs veh, ZNF146 / RFU, ZNF330 / Fold change vs veh, ZNF330 / RFU, GPN3 / Fold change vs veh, GPN3 / RFU, C9orf123 / Fold change vs veh, C9orf123 / RFU, N4BP2L2 / Fold change vs veh, N4BP2L2 / RFU, ARFIP1 / Fold change vs veh, ARFIP1 / RFU, FAM179B / Fold change vs veh, FAM179B / RFU, BCL10 / Fold change vs veh, BCL10 / RFU, UHRF1BP1L / Fold change vs veh, UHRF1BP1L / RFU, BET1 / Fold change vs veh, BET1 / RFU, CNOT2 / Fold change vs veh, CNOT2 / RFU, ZNF268 / Fold change vs veh, ZNF268 / Fold change vs veh, ZNF507 / RFU, DGCR2 / Fold change vs veh, DGCR2 / RFU, WDSUB1 / Fold change vs veh, WDSUB1 / Fold change vs veh, HSP90B1 /// MIR3652 / RFU, ADSS / Fold change vs veh, ADSS / RFU, GK / Fold change vs veh, GK / RFU, ZNF148 / Fold change vs veh, ZNF148 / RFU, TAF9 / Fold change vs veh, TAF9 / RFU, SLC1A5 / Fold change vs veh, SLC1A5 / RFU, SLMO2 / Fold change vs veh, SLMO2 / RFU, ABCC4 / Fold change vs veh, ABCC4 / RFU, LOC101060439 /// RAP1B / Fold change vs veh, LOC101060439 /// RAP1B / RFU, RFX7 / Fold change vs veh, RFX7 / RFU, GTPBP10 / Fold change vs veh, GTPBP10 / RFU, CNEP1R1 / Fold change vs veh, CNEP1R1 / RFU, BIVM-ERCC5 /// ERCC5 / Fold change vs veh, BIVM-ERCC5 /// ERCC5 / RFU, ILF3 / Fold change vs veh, ILF3 / RFU 11762660_at / Fold change /veh 11762660_at / RFU VCAN (11757783_s_at) / Fold change /veh VCAN (11757783_s_at) / RFU DDX43 (11728927_at) / Fold change /veh DDX43 (11728927_at) / RFU KRT8 (11758188_x_at) / Fold change /veh KRT8 (11758188_x_at) / RFU NKD1 (11759106_at) / Fold change /veh NKD1 (11759106_at) / RFU SRD5A1 (11742802_a_at) / Fold change /veh SRD5A1 (11742802_a_at) / RFU TPSAB1 /// TPSB2 (11721975_s_at) / Fold change /veh TPSAB1 /// TPSB2 (11721975_s_at) / RFU GSTM3 (11746129_a_at) / Fold change /veh GSTM3 (11746129_a_at) / RFU IL23R (11737362_x_at) / Fold change /veh IL23R (11737362_x_at) / RFU TMEM51 (11727254_a_at) / Fold change /veh TMEM51 (11727254_a_at) / RFU PIWIL2 (11732686_x_at) / Fold change /veh PIWIL2 (11732686_x_at) / RFU ORM1 (11744905_x_at) / Fold change /veh ORM1 (11744905_x_at) / RFU CCDC152 (11743942_at) / Fold change /veh CCDC152 (11743942_at) / RFU ECM1 (11717891_a_at) / Fold change /veh ECM1 (11717891_a_at) / RFU IL23R (11748794_a_at) / Fold change /veh IL23R (11748794_a_at) / RFU TNFAIP8L3 (11732012_x_at) / Fold change /veh TNFAIP8L3 (11732012_x_at) / RFU MBOAT4 (11741988_at) / Fold change /veh MBOAT4 (11741988_at) / RFU 11764193_at / Fold change /veh 11764193_at / RFU TMEM53 (11763286_at) / Fold change /veh TMEM53 (11763286_at) / RFU MAGEB2 (11727129_at) / Fold change /veh MAGEB2 (11727129_at) / RFU TMEM200A (11744735_a_at) / Fold change /veh TMEM200A (11744735_a_at) / RFU CCDC152 (11751479_a_at) / Fold change /veh CCDC152 (11751479_a_at) / RFU FAM211A (11726209_a_at) / Fold change /veh FAM211A (11726209_a_at) / RFU RGS16 (11746705_a_at) / Fold change /veh RGS16 (11746705_a_at) / RFU VCAN (11755009_s_at) / Fold change /veh VCAN (11755009_s_at) / RFU RHOB (11743442_s_at) / Fold change /veh RHOB (11743442_s_at) / RFU RGS16 (11720943_a_at) / Fold change /veh RGS16 (11720943_a_at) / RFU RGS16 (11720944_at) / Fold change /veh RGS16 (11720944_at) / RFU, VPS4B / Fold change vs veh, VPS4B / RFU, CREB1 / Fold change vs veh, CREB1 / RFU, DNAJC13 / Fold change vs veh, DNAJC13 / RFU, GNAQ / Fold change vs veh, GNAQ / RFU, CDK5R1 / Fold change vs veh, CDK5R1 / RFU, ZRANB3 / Fold change vs veh, ZRANB3 / RFU, CUL4A / Fold change vs veh, CUL4A / RFU, CCNY / Fold change vs veh, CCNY / RFU, UFL1 / Fold change vs veh, UFL1 / RFU, COG3 / Fold change vs veh, COG3 / RFU, DIAPH2 / Fold change vs veh, DIAPH2 / RFU, SKA2 / Fold change vs veh, SKA2 / RFU, AFF3 / Fold change vs veh, AFF3 / RFU, LMF1 / Fold change vs veh, LMF1 / RFU, IPO11 / Fold change vs veh, IPO11 / RFU, DFFB / Fold change vs veh, DFFB / RFU, FOXP1 / Fold change vs veh, FOXP1 / RFU, CARD8 / Fold change vs veh, CARD8 / RFU, STRN3 / Fold change vs veh, STRN3 / RFU, ADK / Fold change vs veh, ADK / RFU, RASSF2 / Fold change vs veh, RASSF2 / RFU, WIPF1 / Fold change vs veh, WIPF1 / RFU, LARP1B / Fold change vs veh, LARP1B / RFU, RASA1 / Fold change vs veh, RASA1 / RFU, RB1 / Fold change vs veh, RB1 / RFU, PPFIA1 / Fold change vs veh, PPFIA1 / RFU, MAT2A / Fold change vs veh, MAT2A / RFU, CCT5 / Fold change vs veh, CCT5 / RFU, WDR92 / Fold change vs veh, WDR92 / RFU, CUX1 / Fold change vs veh, CUX1 / RFU, TTC7A / Fold change vs veh, TTC7A / RFU, TMEM135 / Fold change vs veh, TMEM135 / RFU, DEPTOR / Fold change vs veh, DEPTOR / RFU, CPM / Fold change vs veh, CPM / RFU, DNAJB6 / Fold change vs veh, DNAJB6 / RFU, CACNA2D3 / Fold change vs veh, CACNA2D3 / RFU, DTX4 / Fold change vs veh, DTX4 / RFU, TFCP2 / Fold change vs veh, TFCP2 / RFU, GMCL1 /// GMCL1P1 / Fold change vs veh, GMCL1 /// GMCL1P1 / RFU, AEBP2 / Fold change vs veh, AEBP2 / RFU, SNHG1 /// SNORD22 /// SNORD25 /// SNORD26 /// SNORD27 /// SNORD28 /// SNORD29 /// SNORD31 / Fold change vs veh, SNHG1 /// SNORD22 /// SNORD25 /// SNORD26 /// SNORD27 /// SNORD28 /// SNORD29 /// SNORD31 / Fold change (Aza/veh), C12orf56 (ProbeSet 11735607_a_at) / Fold change (ACY-1035/veh), C12orf56 (ProbeSet 11735607_a_at) / Fold change (Aza/veh), FGFR1OP (ProbeSet 11751329_s_at) / Fold change (ACY-1035/veh), FGFR1OP (ProbeSet 11751329_s_at) / Fold change (Aza/veh), VPS36 (ProbeSet 11739960_a_at) / Fold change (ACY-1035/veh), VPS36 (ProbeSet 11739960_a_at) / RFU SYPL1 (11715823_x_at) / Fold change /veh SYPL1 (11715823_x_at) / RFU IGFBP7 (11715501_s_at) / Fold change /veh IGFBP7 (11715501_s_at) / RFU REEP3 (11722064_at) / Fold change /veh REEP3 (11722064_at) / RFU IGLL1 (11728026_x_at) / Fold change /veh IGLL1 (11728026_x_at): dose or concentration left out as unconfirmed
Details: MV-4-11 cells, 48 hours

Compound: Nc1ncn([C@@H]2O[C@H](CO)[C@@H](O)[C@H]2O)c(=O)n1 [azacitidine]
- RFU FAM26E (11764081_at): 5.32 RFU
